Data reported in PubChem BioAssay (NCI).
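A five-concentration, 48-hour dose response in 96-well plates underlies each endpoint, interpolated linearly between surrounding concentrations. The concentration for 50% growth inhibition is given as GI50. TGI marks complete inhibition of growth.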

Experiments:
Assay in all cases: NCI tumour cell line growth inhibition, 48 h
[1] = system: SK-MEL-28 melanoma
[2] = system: HOP-92 NSCLC
[3] = system: MCF7 breast
[4] = system: CAKI-1 renal
[5] = system: RXF 393 renal
[6] = system: NCI/ADR-RES ovarian
[7] = system: SK-OV-3 ovarian
[8] = system: SW-620 colon
[9] = system: SNB-19 CNS
[10] = system: SF-539 CNS
[11] = system: SF-268 CNS
[12] = system: HCT-116 colon
[13] = system: OVCAR-8 ovarian
[14] = system: EKVX NSCLC
[15] = system: BT-549 breast
[16] = system: SNB-75 CNS
[17] = system: IGROV1 ovarian
[18] = system: UO-31 renal
[19] = system: NCI-H23 lung
[20] = system: HL-60(TB) leukemia
[21] = system: K-562 leukemia
[22] = system: ACHN renal
[23] = system: SR leukemia
[24] = system: SF-295 CNS
[25] = system: DU-145 prostate
[26] = system: HOP-62 NSCLC
[27] = system: MDA-MB-435
[28] = system: SK-MEL-2 melanoma
[29] = system: UACC-257 melanoma
[30] = system: NCI-H226 lung
[31] = system: SN12C renal
[32] = system: RPMI-8226 leukemia
[33] = system: CCRF-CEM leukemia
[34] = system: NCI-H522 lung
[35] = system: PC-3 prostate
[36] = system: MDA-MB-231 breast
[37] = system: HCC-2998 colon
[38] = system: MOLT-4 leukemia
[39] = system: MALME-3M melanoma
[40] = system: HS 578T breast
[41] = system: A549 NSCLC
[42] = system: COLO 205 colon
[43] = system: OVCAR-3 ovarian
[44] = system: M14 melanoma
[45] = system: T-47D breast
[46] = system: HCT-15 colon
[47] = system: HT29 colon
[48] = system: 786-0 renal
[49] = system: TK-10 renal
[50] = system: UACC-62 melanoma
[51] = system: U251 CNS
[52] = system: NCI-H460 lung
[53] = system: KM12 colon
[54] = system: SK-MEL-5 melanoma
[55] = system: LOX IMVI melanoma
[56] = system: OVCAR-4 ovarian
[57] = system: OVCAR-5 ovarian

`C#Cc1cccc(NC(=O)C2CCCN(C(=O)CCl)C2)c1` (centres undefined) gave a GI50 [1] greater than 82.5 µM, a TGI [1] greater than 82.5 µM and a GI50 [2] greater than 82.5 µM. For the same compound, the TGI [2] was greater than 82.5 µM, the GI50 [3] was greater than 82.5 µM and the TGI [3] was greater than 82.5 µM. For the same compound, the GI50 [4] was greater than 82.5 µM, the TGI [4] was greater than 82.5 µM and the GI50 [5] was greater than 82.5 µM. It also gave a TGI [5] greater than 82.5 µM, a GI50 [6] greater than 82.5 µM and a TGI [6] greater than 82.5 µM. It also gave a GI50 [7] greater than 82.5 µM, a TGI [7] greater than 82.5 µM and a GI50 [8] of 29.5 µM. The TGI [8] was greater than 82.5 µM, the GI50 [9] was greater than 82.5 µM and the TGI [9] was greater than 82.5 µM. It also gave a GI50 [10] greater than 82.5 µM, a TGI [10] greater than 82.5 µM and a GI50 [11] greater than 82.5 µM. The TGI [11] was greater than 82.5 µM, the GI50 [12] was 45.9 µM and the TGI [12] was greater than 82.5 µM. It also gave a GI50 [13] of 61.8 µM, a TGI [13] greater than 82.5 µM and a GI50 [14] greater than 82.5 µM. It also gave a TGI [14] greater than 82.5 µM, a GI50 [15] of 38.6 µM and a TGI [15] greater than 82.5 µM. For the same compound, the GI50 [16] was greater than 82.5 µM, the TGI [16] was greater than 82.5 µM and the GI50 [17] was 14.3 µM. The TGI [17] was 33.3 µM, the GI50 [18] was 12.9 µM and the TGI [18] was 26.4 µM. For the same compound, the GI50 [19] was 21.8 µM, the TGI [19] was greater than 82.5 µM and the GI50 [20] was greater than 82.5 µM. The TGI [20] was greater than 82.5 µM, the GI50 [21] was 36.6 µM and the TGI [21] was greater than 82.5 µM. The GI50 [22] was 16.1 µM, the TGI [22] was 31.6 µM and the GI50 [23] was 24.2 µM. It also gave a TGI [23] greater than 82.5 µM, a GI50 [24] greater than 82.5 µM and a TGI [24] greater than 82.5 µM. For the same compound, the GI50 [25] was greater than 82.5 µM, the TGI [25] was greater than 82.5 µM and the GI50 [26] was greater than 82.5 µM. For the same compound, the TGI [26] was greater than 82.5 µM, the GI50 [27] was 69.8 µM and the TGI [27] was greater than 82.5 µM. It also gave a GI50 [28] greater than 82.5 µM, a TGI [28] greater than 82.5 µM and a GI50 [29] greater than 82.5 µM. It also gave a TGI [29] greater than 82.5 µM, a GI50 [30] greater than 82.5 µM and a TGI [30] greater than 82.5 µM. It also gave a GI50 [31] of 19.7 µM, a TGI [31] greater than 82.5 µM and a GI50 [32] greater than 82.5 µM. For the same compound, the TGI [32] was greater than 82.5 µM, the GI50 [33] was 21.7 µM and the TGI [33] was 64.4 µM. The GI50 [34] was 14.7 µM, the TGI [34] was 32.7 µM and the GI50 [35] was greater than 82.5 µM. It also gave a TGI [35] greater than 82.5 µM, a GI50 [36] greater than 82.5 µM and a TGI [36] greater than 82.5 µM. The GI50 [37] was greater than 82.5 µM, the TGI [37] was greater than 82.5 µM and the GI50 [38] was 23.4 µM. For the same compound, the TGI [38] was 75.1 µM, the GI50 [39] was 18.1 µM and the TGI [39] was 78.6 µM. It also gave a GI50 [40] greater than 82.5 µM, a TGI [40] greater than 82.5 µM and a GI50 [41] greater than 82.5 µM. The TGI [41] was greater than 82.5 µM, the GI50 [42] was 21.5 µM and the TGI [42] was 45 µM. The GI50 [43] was greater than 82.5 µM, the TGI [43] was greater than 82.5 µM and the GI50 [44] was 29.9 µM. The TGI [44] was greater than 82.5 µM, the GI50 [45] was greater than 82.5 µM and the TGI [45] was greater than 82.5 µM. For the same compound, the GI50 [46] was 28.3 µM, the TGI [46] was greater than 82.5 µM and the GI50 [47] was greater than 82.5 µM. The TGI [47] was greater than 82.5 µM, the GI50 [48] was greater than 82.5 µM and the TGI [48] was greater than 82.5 µM. It also gave a GI50 [49] greater than 82.5 µM, a TGI [49] greater than 82.5 µM and a GI50 [50] greater than 82.5 µM. For the same compound, the TGI [50] was greater than 82.5 µM, the GI50 [51] was greater than 82.5 µM and the TGI [51] was greater than 82.5 µM. The GI50 [52] was greater than 82.5 µM, the TGI [52] was greater than 82.5 µM and the GI50 [53] was greater than 82.5 µM. It also gave a TGI [53] greater than 82.5 µM, a GI50 [54] of 29.7 µM and a TGI [54] greater than 82.5 µM. It also gave a GI50 [55] of 14.4 µM, a TGI [55] of 28.7 µM and a GI50 [56] of 19.5 µM. It also gave a TGI [56] of 52.8 µM, a GI50 [57] greater than 82.5 µM and a TGI [57] greater than 82.5 µM.
